Values joined by “and” are separate entries in the source; they are usually repeats but may differ in a detail not shown here. Identical values can stand only once.

Series [1] deals with T1, GST-tagged PNCK recombinant protein (Homo sapiens, UniProt Q6P2M8).
T1 construct: GST; purchased Novus NBP1-99886
In words: ADP-Glo Kinase Assay, biochemical PNCK inhibitor screen. Particulars: compound 10uM; 25uM ATP; normalized to DMSO and staurosporine controls. As to the method:
ADP-Glo Kinase Assay (V6930, Promega) was used to screen the first round of compounds against PNCK. […] Autocamtide-II (GenScript RP10271) was used as the peptide substrate. This peptide was dissolved in water and prepared immediately prior to the assay. Calcium/Calmodulin 10X (Abcam ab189137) solution was used to create a custom kinase buffer: 40mM Tris,pH 7.5; 20mM MgCl2; 0.1mg/ml BSA; 50μM DTT and Ca2+/Calmodulin solution (0.03μg/μl, Calmodulin, 1mM Tris,pH 7.3, 0.5mM CaCl2). […] A standard curve was then done to determine the amount of protein needed to generate a signal in the linear range of the ATP curve. 100ng of PNCK and 2ng of substrate was used per well in the 96-well plate format of this assay. […] Plates were read using the Clariostar Plus. Data was normalized to a DMSO and staurosporine controls.
(§1) Data analysis of ADP Kinase Glo results were carried out per the manufacturer’s instructions. Results were represented as a percent decrease in activity. Data was normalized to staurosporine (positive control) as 100% decrease and DMSO (negative control) as a 0% decrease. Data for NanoBRET was analyzed by dividing the acceptor by the donor emission and […] to obtain raw millibret units (mBU). Background was subtracted using control emission averages. Data was normalized to positive and negative controls of staurosporine and DMSO. Concentration-response curves were plotted in GraphPad Prism 8 and IC50s were extrapolated using non-linear fit with concentrations transformed to logarithmic scale. Baseline was held constant and represented the average mBU of staurosporine controls while the top was constrained to represent the average mBU of DMSO controls. Error bars on dose-response curves represent standard deviations.

Series [2] deals with T2, PNCK Nano-luciferase fusion (Homo sapiens, UniProt Q6P2M8).
T2 construct: host or cells: HEK293
T2 sequence (Q6P2M8 whole entry, the tested form may be a part): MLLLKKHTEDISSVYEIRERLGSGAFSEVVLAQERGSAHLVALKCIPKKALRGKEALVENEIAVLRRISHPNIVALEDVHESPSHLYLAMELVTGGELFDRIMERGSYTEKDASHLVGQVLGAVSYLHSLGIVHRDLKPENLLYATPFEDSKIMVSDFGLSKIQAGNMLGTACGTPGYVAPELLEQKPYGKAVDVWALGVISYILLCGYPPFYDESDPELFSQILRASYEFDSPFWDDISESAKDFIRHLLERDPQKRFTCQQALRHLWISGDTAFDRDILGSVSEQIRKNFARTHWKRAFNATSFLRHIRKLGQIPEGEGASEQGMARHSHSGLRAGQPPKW
Nature of the series: NanoBRET Target Engagement Intracellular Kinase Assay, cell-based PNCK binding screen and dose response in HEK293 cells. Particulars: for inhibition at 1 µM: compound 1uM, read-out: Avg. Normalized % Inhibition, 1uM, Nanobret; for inhibition at 1 µM / inhibition at 10 µM / IC50: HEK293; for inhibition at 1 µM / inhibition at 10 µM: K10 tracer 1uM, normalized to staurosporine and DMSO; for inhibition at 10 µM: compound 10uM, read-out: Avg. Normalized % Inhibition, 10uM, Nanobret; for IC50: 8-point concentration-response; for NanoBRET binding, result in words: cell-based screen / comparison with parent hit; for cell permeability: stated on testing in NanoBRET assay. As to the method: The NanoBRET Target Engagement Intracellular Kinase Assay (Promega N2520) is a cell-based binding screen which reads loss of BRET signal as a result of target binding. A PNCK Nano-luciferase fusion vector plasmid was generated custom by Promega. The K-10 tracer was used for the assay, as determined by Promega. The plasmid was maxiprepped by Genewiz for use in all future assays. HEK293 cells were seeded in a T175 flask in DMEM with 10% FBS. The following day, cells were counted to 10,000, resuspended in assay media (Optimem with no phenol red, 1% FBS). Plasmid and transfection reagent (Fugene HD, Promega E2311) were added to the mixture and cells were seeded in a white 96-well plate. After 20–24 hours, media was changed, and the assay proceeded according to protocol. K10 tracer was added at the recommended concentration of 1uM while compounds were initially screened at both 10uM and 1uM. Cells incubated with compound at 37 degrees Celsius for a maximum of 2 hours before the plate was read using Clariostar Plus. Data was normalized to Staurosporine and DMSO controls. For compounds selected for further analysis, dose response curves were generated using the same testing protocol but at 8 different concentrations: 24uM, 12uM, 6uM, 3uM, 1.5uM, .75uM 0.375uM and 0.1875uM. UM195 was tested with concentrations from 12uM to 0.09375. Similarly, compounds from the analog by catalog analysis were tested at concentrations from 24uM to 0.1875uM.
as §1

By inhibition is commonly meant the drop in the measured response relative to a control, in per cent. With `COc1ccc(C(=O)/C=C/c2n[nH]c3cc(C(=O)O)ccc23)c(F)c1` [UM_020], in series [1], the “Avg. Normalized % Inhibition, 10uM, ADP Kinase Glo” value (from here on “Avg. Normalized % Inhibition, 10uM”) is listed as “Negligible”. Also, in series [2], the inhibition at 1 µM turned out to be 0% and the inhibition at 10 µM stood at 0%.

`CC(C)(CC(=O)Nc1ccc(Oc2ccnc3ccccc23)c(F)c1)C(=O)O` [UM_026]: the “Avg. Normalized % Inhibition, 10uM” value in series [1] came to 76.56%. In series [2], the inhibition at 1 µM worked out at 0% and the inhibition at 10 µM is 0%.

Consider `O=c1nc(CSc2nnc(-c3ccccc3)c3ccccc23)[nH][nH]1` [UM_022], for which the “Avg. Normalized % Inhibition, 10uM” value in series [1] is “Negligible”. In series [2], the inhibition at 1 µM was determined as 0% and the inhibition at 10 µM amounted to 10.5%.

Usually IC50 stands for the concentration needed to halve the response being measured. Lower therefore signals greater potency. The compound `CC1CCc2c(sc(NC(=O)CSc3ncnc4[nH]cnc34)c2C(N)=O)C1` (centres unmarked) [UM_251] showed an IC50 in series [2] of 2.53 µM. For the same compound, the “Dose-Response Curve Data (NanoBRET signal, replicates)” value (shortened to “Dose-Response Curve Data”) in series [2] (Concentration 1.20E-05 M) is 4.13 and 4.23 and 4.54 and 4.39; in series [2] (Concentration 1.50E-06 M), 6.59 and 7.07 and 6.74 and 7.03; in series [2] (Concentration 1.88E-07 M) it was 7.33 and 7.01 and 6.90 and 7.62; in series [2] (Concentration 2.40E-05 M), 4.23 and 3.92 and 4.54 and 4.39; in series [2] (Concentration 3.00E-06 M), 6.43 and 6.10 and 6.50 and 6.24; in series [2] (Concentration 3.75E-07 M) it was 7.22 and 7.21 and 7.00 and 7.10. The “Dose-Response Curve Data” value in series [2] (Concentration 6.00E-06 M) is 4.64 and 5.22 and 4.89 and 5.32; in series [2] (Concentration 7.50E-07 M), 7.22 and 6.99 and 7.34 and 6.94. The “NanoBRET binding, result in words” value in series [2] is listed as “improving from the IC50 of UM_228 by one order of magnitude”. Moreover, the inhibition at 1 µM in series [2] is 63.2%. In addition, in series [2], the inhibition at 10 µM stood at 91.8%.

For `COc1ccccc1N(CCC(N)=O)C(=O)COc1ccc2c(c1)CCCC2=O` [UM_249], in series [2], the inhibition at 1 µM was determined as 22.8% and the inhibition at 10 µM was 41.8%.

Consider `O=C1CCCCCN1CCc1nc(-c2cccnn2)no1` [UM_242], for which the cell permeability entry in series [2] is recorded as “not cell permeable”.

Take `O=c1oc2cc(OC3OC(CO)C(O)C(O)C3O)c(Cl)cc2c2c1CCCC2` (centres unmarked) [UM_226]: in series [2], the inhibition at 1 µM amounted to 21.8% and the inhibition at 10 µM came out at 51.6%.

Turning to `O=C1CNC(=O)N1CCCOc1ccc2c3c(c(=O)oc2c1)CCCCC3` [UM_258], in series [2], the inhibition at 1 µM was determined as 27.9% and the inhibition at 10 µM turned out to be 74%.

Take `Cn1cnnc1SCc1nc(N)c2c3c(sc2n1)CCCC3` [UM_214]: in series [2], the inhibition at 1 µM was 27.2% and the inhibition at 10 µM turned out to be 62.3%.

For `Cc1nc2c3ccccc3nc(SCCCn3c(=O)[nH]c4ccccc43)n2n1` [UM_277], in series [2], the IC50 stood at 16.1 µM, the inhibition at 1 µM turned out to be 37.1% and the inhibition at 10 µM worked out at 68.6%.

In the case of `C[C@@H]1CCc2c(sc(NC(=O)c3ccc(Cl)s3)c2C(N)=O)C1` [UM_228, (6R)-2-(5-chlorothiophene-2-amido)-6-methyl-4,5,6,7-tetrahydro-1-benzothiophene-3-carboxamide], the IC50 in series [2] was 8.32 µM. Moreover, the “Dose-Response Curve Data” value in series [2] (Concentration 1.20E-05 M) is 6.59 and 6.36 and 6.71; in series [2] (Concentration 1.50E-06 M), 8.32 and 8.64 and 8.50; in series [2] (Concentration 1.88E-07 M), 8.44 and 8.73 and 8.35; in series [2] (Concentration 2.40E-05 M) it was 5.75 and 5.50 and 5.61; in series [2] (Concentration 3.00E-06 M), 8.33 and 8.45 and 7.70; in series [2] (Concentration 3.75E-07 M), 8.86 and 8.18 and 8.92. Besides, the “Dose-Response Curve Data” value is 7.13 and 7.60 and 7.05 in series [2] (Concentration 6.00E-06 M); 8.73 and 8.94 and 8.43 in series [2] (Concentration 7.50E-07 M). In addition, the inhibition at 1 µM in series [2] came out at 35.2%. Besides, the inhibition at 10 µM in series [2] came out at 97.6%.

Take `Cc1cc(C)n2nc(SCc3cc(=O)n4cc(Br)ccc4n3)nc2n1` [UM_201]: in series [2], the inhibition at 1 µM was determined as 3.26% and the inhibition at 10 µM worked out at 30.8%.

As to `O=C(O)c1cccc(NS(=O)(=O)/C=C/c2ccc(Cl)cc2)c1` [UM_235], in series [2], the inhibition at 1 µM was determined as 4.02% and the inhibition at 10 µM was 10.3%.

For the compound `CCOCCn1c(CN2CCN(CC)CC2)nc2c1c(O)nc(=O)n2C` [UM_227], in series [2], the inhibition at 1 µM came out at 22.4% and the inhibition at 10 µM was 49.4%.

As for `CC1CCc2c(sc(NC(=O)c3cccs3)c2C(N)=O)C1` (centres unmarked) [UM_255], in series [2], the inhibition at 1 µM came out at 0% and the inhibition at 10 µM is 1.24%.

As to `O=C(CSc1ncccn1)c1ccc(O)c(O)c1` [UM_243], the cell permeability result in series [2] is listed as “not cell permeable”.

For the compound `N#Cc1cnc(Sc2nnc(-c3ccccc3)o2)cn1` [UM_253], in series [2], the inhibition at 1 µM came out at 4.54% and the inhibition at 10 µM worked out at 55.6%.

Turning to `CCn1c(SCCCn2c(=O)[nH]c3ccccc32)n[nH]c1=O` [UM_274], in series [2], the IC50 stood at 10.3 µM, the inhibition at 1 µM is 34.2% and the inhibition at 10 µM amounted to 71.8%.

With `CNC(=O)[C@@H]1C[C@@H](N)CN1C(=O)CCc1nc(-c2cccnc2)no1` [UM_244], the cell permeability entry in series [2] was “not cell permeable”.

For the compound `CC1(C)CCc2c(sc(NC(=O)c3ccc(Cl)s3)c2C(N)=O)C1` [UM_260], in series [2], the inhibition at 1 µM turned out to be 4.8% and the inhibition at 10 µM was determined as 31.2%.

`Cc1[nH]ccc1C(=O)NC1CCC(N2C(=O)CCC2=O)CC1` (centres unmarked) [UM_211]: in series [2], the inhibition at 1 µM was 0% and the inhibition at 10 µM was determined as 0%.

Consider `Cc1cc(NC(=O)[C@@H]2CCO[C@H]2c2nccn2C)nnc1C` [UM_221], for which, in series [2], the inhibition at 1 µM was 0% and the inhibition at 10 µM is 14.7%.

As for `CCc1nc(N)nc(SCCCn2c(=O)[nH]c3ccccc32)n1` [UM_276], in series [2], the inhibition at 1 µM was found to be 10.9% and the inhibition at 10 µM came to 37.8%.

As to `O=c1[nH]c2ccccc2n2c(SCCCn3c(=O)[nH]c4ccccc43)nnc12` [UM_273], in series [2], the inhibition at 1 µM was found to be 29% and the inhibition at 10 µM came to 45.5%.

Take `Nn1c(SCc2ccc(Br)cc2)nnc(CCC(=O)O)c1=O` [UM_192]: in series [2], the inhibition at 1 µM is 0%, the inhibition at 10 µM is 0% and the cell permeability result is given as “not cell permeable”.

On to `O=C(O)c1cccc(S(=O)(=O)Nc2nc3ccc(Cl)cc3s2)c1` [UM_203], for which, in series [2], the inhibition at 1 µM came out at 5.12% and the inhibition at 10 µM stood at 22.7%.

As for `Cc1ccc2[nH]c(SCc3cc(=O)n4ccccc4n3)nc2c1` [UM_197], in series [2], the inhibition at 1 µM came out at 1.23% and the inhibition at 10 µM stood at 27%.

As for `c1ccc2c(c1)ccn2CCc1nc(-c2cnccn2)no1` [UM_202], in series [2], the inhibition at 1 µM came out at 0% and the inhibition at 10 µM was found to be 21.5%.

Turning to `Cc1cc(C)n2nc(SCc3nc4ccccc4s3)nc2n1` [UM_218], in series [2], the inhibition at 1 µM is 16.7% and the inhibition at 10 µM is 61.2%.

On to `O=c1[nH]c(CSc2ccccc2)nc2ccc(Cl)cc12` [UM_279], for which, in series [2], the “NanoBRET binding, result in words” value is on record as “did not demonstrate significantly improved binding”; the inhibition at 1 µM is 5.1%; the inhibition at 10 µM came out at 23.4%.

The record behind these values is article PMC10249896, “AI-Assisted chemical probe discovery for the understudied Calcium-Calmodulin Dependent Kinase, PNCK” (PLOS Computational Biology, 2023).
